Values joined by “and” are separate entries in the source; they are usually repeats but may differ in a detail not shown here. Equal entries are not always repeated. Toxic doses and inconclusive results are not listed.

This assay deals with P388 leukemia ip, CD2F1 mice, survival T/C. Nature of the assay: NCI In Vivo Anticancer Drug Screen. Data for tumor model P388 Leukemia (intraperitoneal) in CD2F1 (CDF1) mice. The settings on record: endpoint: median survival time, higher = longer survival. Put shortly:
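Mice carrying the transplanted tumor received test compound or vehicle. Survival was recorded in each group, and the value is the treated-group measurement divided by that of the vehicle-treated control group.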

[1] abbreviates: dose: 6.25 mg/kg/injection, schedule: Q01DX009 (ip), vehicle: Klucel (hydroxypropylcellulose) (HPC).
The mark [2] stands for this setting: dose: 50.0 mg/kg/injection, schedule: Q04DX003 (ip), vehicle: saline with Tween-80.
Setting [3] is: dose: 100.0 mg/kg/injection, schedule: Q04DX003 (ip), vehicle: saline with Tween-80.
Setting [4] is: dose: 50.0 mg/kg/injection, schedule: Q01DX005 (ip), vehicle: saline with Tween-80.
Setting [5] is: dose: 100.0 mg/kg/injection, schedule: Q01DX005 (ip), vehicle: saline with Tween-80.
Setting [6] is: dose: 200.0 mg/kg/injection, schedule: Q01DX005 (ip), vehicle: saline with Tween-80.
Setting [7] is: dose: 50.0 mg/kg/injection, schedule: Q01DX009 (ip), vehicle: other.
The mark [8] stands for this setting: dose: 6.25 mg/kg/injection, schedule: Q01DX009 (ip), vehicle: water.
[9] abbreviates: dose: 12.5 mg/kg/injection, schedule: Q01DX009 (ip), vehicle: water.

For `O=C(CC1(O)C(=O)Nc2c(Cl)cccc21)c1cccs1` (centres undefined), the T/C was 103 % of control (dose: 50.0 mg/kg/injection, schedule: Q01DX005 (ip), vehicle: Klucel (hydroxypropylcellulose) (HPC)); 100 % of control (dose: 100.0 mg/kg/injection, schedule: Q01DX005 (ip), vehicle: Klucel (hydroxypropylcellulose) (HPC)); 104 % of control (dose: 200.0 mg/kg/injection, schedule: Q01DX005 (ip), vehicle: Klucel (hydroxypropylcellulose) (HPC)).

For `CCSc1nc2ccc(N3C(=O)C=CC3=O)cc2s1`, the T/C runs as follows: (dose: 3.12 mg/kg/injection, schedule: Q01DX009 (ip), vehicle: Klucel (hydroxypropylcellulose) (HPC)) 111 % of control; under setting [1], 119 % of control; (dose: 12.5 mg/kg/injection, schedule: Q01DX009 (ip), vehicle: Klucel (hydroxypropylcellulose) (HPC)) 115 % of control.

Regarding `CCOC(CN)(OCC)c1ccncc1`, the T/C (dose: 50.0 mg/kg/injection, schedule: Q01DX005 (ip), vehicle: saline) was 102 % of control; the T/C (dose: 100.0 mg/kg/injection, schedule: Q01DX005 (ip), vehicle: saline) was 101 % of control; the T/C (dose: 200.0 mg/kg/injection, schedule: Q01DX005 (ip), vehicle: saline) was 101 % of control.

With `CCCCCCCCC(C(=O)c1ccccc1)=C(C(F)(F)F)C(F)(F)F`, the T/C was 100 % of control (dose: 25.0 mg/kg/injection, schedule: Q04DX003 (ip), vehicle: saline with Tween-80); 95 % of control under setting [2]; 104 % of control under setting [3].

As to `CC1N(N2C(=O)CS(=O)(=O)C2C)C(=O)CS1(=O)=O` (centres undefined), the T/C reads like this: under setting [4], 90 % of control; under setting [5], 95 % of control; under setting [6], 89 % of control.

In the case of `Clc1ccc2ccc3ccccc3c2n1`, the T/C reads like this: (dose: 12.5 mg/kg/injection, schedule: Q01DX009 (ip), vehicle: saline) 101 % of control; (dose: 25.0 mg/kg/injection, schedule: Q01DX009 (ip), vehicle: saline) 102 % of control; (dose: 50.0 mg/kg/injection, schedule: Q01DX009 (ip), vehicle: saline) 101 % of control and 94 % of control.

In the case of `CN(C)c1ccc(P(=O)(O)O)cc1`, the T/C runs as follows: under setting [4], 96 % of control; under setting [5], 99 % of control; under setting [6], 91 % of control.

With `COc1cc2ccnc(/C=N\O)c2cc1OC`, the T/C is, setting by setting: (dose: 12.5 mg/kg/injection, schedule: Q01DX009 (ip), vehicle: distilled water + Tween-80) 102 % of control; (dose: 25.0 mg/kg/injection, schedule: Q01DX009 (ip), vehicle: distilled water + Tween-80) 116 % of control; (dose: 50.0 mg/kg/injection, schedule: Q01DX009 (ip), vehicle: distilled water + Tween-80) 109 % of control; (dose: 100.0 mg/kg/injection, schedule: Q01DX009 (ip), vehicle: distilled water + Tween-80) 102 % of control; (dose: 200.0 mg/kg/injection, schedule: Q01DX009 (ip), vehicle: distilled water + Tween-80) 91 % of control; (dose: 400.0 mg/kg/injection, schedule: Q01DX009 (ip), vehicle: distilled water + Tween-80) 93 % of control.

As to `CCOC(=O)C1(C(=O)O)CCCN(C(=O)OCc2ccccc2)C1Cc1ccccc1` (centres undefined), the T/C reads like this: (dose: 100.0 mg/kg/injection, schedule: Q01DX001 (ip), vehicle: Klucel (hydroxypropylcellulose) (HPC)) 99 % of control; (dose: 200.0 mg/kg/injection, schedule: Q01DX001 (ip), vehicle: Klucel (hydroxypropylcellulose) (HPC)) 102 % of control; (dose: 400.0 mg/kg/injection, schedule: Q01DX001 (ip), vehicle: Klucel (hydroxypropylcellulose) (HPC)) 93 % of control.

Regarding `COc1cccc(C2c3cc4c(cc3OC(C)(N3CCCC3)C2C)OCO4)c1O` (centres undefined), the T/C runs as follows: (dose: 60.0 mg/kg/injection, schedule: Q01DX005 (ip), vehicle: saline with Tween-80) 99 % of control; (dose: 120.0 mg/kg/injection, schedule: Q01DX005 (ip), vehicle: saline with Tween-80) 102 % of control; (dose: 240.0 mg/kg/injection, schedule: Q01DX005 (ip), vehicle: saline with Tween-80) 89 % of control.

As to `Cc1ccc(C(=O)NCCN2CCN3Cc4[nH]c5ccccc5c4CC3C2)cc1` (centres undefined), the T/C (dose: 100.0 mg/kg/injection, schedule: Q04DX002 (ip), vehicle: saline with Tween-80) was 92 % of control and the T/C (dose: 200.0 mg/kg/injection, schedule: Q04DX002 (ip), vehicle: saline with Tween-80) is 105 % of control.

Turning to `O=c1[nH]cc(COCC(F)(F)F)c(=O)[nH]1`, the T/C was 99 % of control under setting [2] and 111 % of control under setting [3].

With `c1ccc(-c2c3ccccc3c[n+]3ccccc23)cc1`, the T/C (dose: 3.13 mg/kg/injection, schedule: Q01DX009 (ip), vehicle: Klucel (hydroxypropylcellulose) (HPC)) was 106 % of control and the T/C under setting [1] was 92 % of control.

With `[O-][N+]1=C(/C=C/C=C/c2ccccc2)CCC1`, the T/C under setting [7] was 95 % of control; the T/C (dose: 100.0 mg/kg/injection, schedule: Q01DX009 (ip), vehicle: other) was 107 % of control; the T/C (dose: 200.0 mg/kg/injection, schedule: Q01DX009 (ip), vehicle: other) was 118 % of control.

In the case of `Cc1cc(C)nc(NN=O)c1`, the T/C is 104 % of control and 112 % of control (dose: 3.12 mg/kg/injection, schedule: Q01DX009 (ip), vehicle: water); 121 % of control under setting [8]; 121 % of control under setting [9]; 95 % of control (dose: 50.0 mg/kg/injection, schedule: Q01DX009 (ip), vehicle: water).

For the compound `Cc1cc(N2C(=O)CCSC2=S)c([N+](=O)[O-])cc1C`, the T/C by setting is: (dose: 50.0 mg/kg/injection, schedule: Q01DX009 (ip), vehicle: suspension in saline) 98 % of control; (dose: 100.0 mg/kg/injection, schedule: Q01DX009 (ip), vehicle: suspension in saline) 91 % of control; (dose: 200.0 mg/kg/injection, schedule: Q01DX009 (ip), vehicle: suspension in saline) 94 % of control.

In the case of `C/C=C1\CN2CCc3c([nH]c4ccccc34)C2CC1C1=CN2c3ccccc3C34CCN5CC6=CCOC1C(C6CC53)C24` (centres undefined), the T/C (dose: 2.38 mg/kg/injection, schedule: Q01DX005 (ip), vehicle: Klucel (hydroxypropylcellulose) (HPC)) was 95 % of control; the T/C (dose: 4.75 mg/kg/injection, schedule: Q01DX005 (ip), vehicle: Klucel (hydroxypropylcellulose) (HPC)) is 97 % of control; the T/C (dose: 9.5 mg/kg/injection, schedule: Q01DX005 (ip), vehicle: Klucel (hydroxypropylcellulose) (HPC)) is 88 % of control.

Take `COc1cccc2c1C(=O)c1c(O)c3c(c(O)c1C2=O)CC(O)(/C(C)=N/NC(=O)C(=O)N/N=C(\C)C1(O)Cc2c(O)c4c(c(O)c2C(OC2CC(N)C(O)C(C)O2)C1)C(=O)c1c(OC)cccc1C4=O)CC3OC1CC(N)C(O)C(C)O1` (centres undefined): the T/C (dose: 1.56 mg/kg/injection, schedule: Q01DX009 (ip), vehicle: water) is 163 % of control and 166 % of control; the T/C (dose: 3.13 mg/kg/injection, schedule: Q01DX009 (ip), vehicle: water) was 180 % of control and 182 % of control; the T/C under setting [8] is 184 % of control and 219 % of control; the T/C under setting [9] is 88 % of control and 94 % of control.

Turning to `N=C(N)c1nc2ccccc2s1`, the T/C was 102 % of control (dose: 12.5 mg/kg/injection, schedule: Q01DX009 (ip), vehicle: other); 104 % of control (dose: 25.0 mg/kg/injection, schedule: Q01DX009 (ip), vehicle: other); 93 % of control under setting [7].

Turning to `Cc1cc(-c2ccc(N3C(=O)CC4(CCCCC4)C3=O)c(C)c2)ccc1N1C(=O)CC2(CCCCC2)C1=O`, the T/C is 90 % of control (dose: 100.0 mg/kg/injection, schedule: Q04DX003 (ip), vehicle: Klucel (hydroxypropylcellulose) (HPC)) and 90 % of control (dose: 200.0 mg/kg/injection, schedule: Q04DX003 (ip), vehicle: Klucel (hydroxypropylcellulose) (HPC)).

`Cc1cc2nc3n(c2cc1C)C(=O)c1cc2ccccc2cc1-3`: the T/C was 97 % of control (dose: 3.12 mg/kg/injection, schedule: Q01DX009 (ip), vehicle: saline with Tween-80); 94 % of control (dose: 6.25 mg/kg/injection, schedule: Q01DX009 (ip), vehicle: saline with Tween-80); 88 % of control (dose: 25.0 mg/kg/injection, schedule: Q01DX009 (ip), vehicle: saline with Tween-80).

For the compound `CN(C)CCC(CCc1ccccc1)OC(=O)c1ccc([N+](=O)[O-])cc1` (centres undefined), the T/C was 102 % of control (dose: 50.0 mg/kg/injection, schedule: Q04DX002 (ip), vehicle: saline) and 107 % of control (dose: 100.0 mg/kg/injection, schedule: Q04DX002 (ip), vehicle: saline).

With `CC1(C)SC=C2C1=CSC2(C)C`, the T/C is, setting by setting: under setting [4], 101 % of control; under setting [5], 96 % of control; under setting [6], 95 % of control.
